Assay results: patent US11058111B2, “Use of multiple charged cationic compounds derived from primary amines or polyamines for microbial fouling control in a water system” (ECOLAB USA INC., priority 2018, dated 2021)

Legend:
[1] = tested on: mixture of aerobic populations from more than 30 cooling systems in North America; assay: Bacterial growth inhibition test, similar to the MBEC assay; growth recorded visually or by turbidity at 650 nm; assay type: cell-based; set-up: key: “−” indicates no detectable growth at the end of test; “+” indicates detectable growth; “+/−” partial growth; “++” more growth; conditions: 40-48 hours incubation at 32-35° C.
Excerpt: The microbial and biofilm inhibition test protocols used in this example is similar to the MBEC (Minimum Biofilm Eradication Concentration) assay and American Society for Testing and Materials (ASTM) MBEC-[…]-12 (2011) assay, both of which are commonly used. This test protocol can be used laboratory and field applications. The test protocol can be conducted in a 12-well or 96-well tissue culture plate format. The 12-well plate format is mainly for lab based and detailed screening/studies. The 96-well format is developed mainly for field applications. The test protocol starts with the preparation of the water sample to be tested by mixing the water from different water systems or artificial water with known bacterial populations with limited nutrient (16% of medium, 2% (w/w) casitone, 0.8% (w/w) yeast extracts, 4% (v/v) glycerol, 4 ppm FeCl3) and the solution of the treatment chemical. This step usually generates a series of the treated water samples with different concentrations for the treatment chemical(s) (from about 0.8 ppm to 1,000 ppm). Next, 200 μL of each treated water samples were transferred to a 96 well plate or 12 well plate. Usually, six replicates would be tested for each concentration of the treatment chemical(s) and controls with no treatment chemical and no bacterial were also placed in the plate(s). After the treated samples were properly plated, the plate(s) are placed on a slow rotary shaker in a humidity-controlled environment on at 32-35° C. for 40-48 hours of incubation. After the incubation, the bacterial growth in each well of the plate was recorded either visually or by a microplate turbidity reader at 650 nm to determine the minimum bacterial growth inhibition concentration for a treatment chemical. The bacteria used in this example for microbial and/or biofilm growth inhibition test protocols comprised a mixture of aerobic populations from more than 30 cooling systems in North America. The specific species were not specifically identified. Those species were grown on […] agar.

[2] = tested on: biofilm of a mixture of aerobic populations from more than 30 cooling systems in North America; assay: Biofilm growth inhibition test, similar to the MBEC assay; INT or crystal violet stain of biofilm on well walls; assay type: cell-based; set-up: key: “−” indicates no detectable growth at the end of test; “+” indicates detectable growth; “+/−” partial growth; “++” more growth; conditions: 40-48 hours incubation at 32-35° C.
Excerpt: The microbial and biofilm inhibition test protocols used in this example is similar to the MBEC (Minimum Biofilm Eradication Concentration) assay and American Society for Testing and Materials (ASTM) MBEC-[…]-12 (2011) assay, both of which are commonly used. This test protocol can be used laboratory and field applications. The test protocol can be conducted in a 12-well or 96-well tissue culture plate format. The 12-well plate format is mainly for lab based and detailed screening/studies. The 96-well format is developed mainly for field applications. The test protocol starts with the preparation of the water sample to be tested by mixing the water from different water systems or artificial water with known bacterial populations with limited nutrient (16% of medium, 2% (w/w) casitone, 0.8% (w/w) yeast extracts, 4% (v/v) glycerol, 4 ppm FeCl3) and the solution of the treatment chemical. This step usually generates a series of the treated water samples with different concentrations for the treatment chemical(s) (from about 0.8 ppm to 1,000 ppm). Next, 200 μL of each treated water samples were transferred to a 96 well plate or 12 well plate. Usually, six replicates would be tested for each concentration of the treatment chemical(s) and controls with no treatment chemical and no bacterial were also placed in the plate(s). After the treated samples were properly plated, the plate(s) are placed on a slow rotary shaker in a humidity-controlled environment on at 32-35° C. for 40-48 hours of incubation. After this step, the bacterial cultures in the plate(s) were carefully poured out and 250 ul of dyes (350 ppm 2-(4-Iodophenyl)-3-(4-nitrophenyl)-5-phenyltetrazolium chloride (INT) or 2,000 ppm crystal violent (CV) for biofilm matrix stain) was added to each well for activity stain in biofilms on well walls. After 10-15 minutes, pour out the dye and gently wash the wells with deionized water until no colored water is running of the plate(s). After drying the plate(s), each well was inspected visually for staining and results are recorded. Alternatively, use 300 uL ethanol to extract CV dyes and transfer 200 uL of ethanol to a new plate for microtiter plate recording at 590 nm. […] The bacteria used in this example for microbial and/or biofilm growth inhibition test protocols comprised a mixture of aerobic populations from more than 30 cooling systems in North America. The specific species were not specifically identified. Those species were grown on […] agar.

Row | Compound | Bacterial growth ([1]; test concentration 0.8 ppm) | Bacterial growth ([1]; test concentration 1.5 ppm) | Bacterial growth ([1]; test concentration 3 ppm) | Bacterial growth ([1]; test concentration 6 ppm) | Bacterial growth ([1]; test concentration 12 ppm) | Bacterial growth ([1]; test concentration 25 ppm) | Bacterial growth ([1]; test concentration 50 ppm) | Bacterial growth ([1]; test concentration 63 ppm) | Bacterial growth ([1]; test concentration 125 ppm) | Bacterial growth ([1]; test concentration 250 ppm) | Bacterial growth ([1]; test concentration 500 ppm) | Bacterial growth ([1]; test concentration 1000 ppm) | Biofilm growth ([2]; test concentration 0.8 ppm) | Biofilm growth ([2]; test concentration 1.5 ppm) | Biofilm growth ([2]; test concentration 3 ppm) | Biofilm growth ([2]; test concentration 6 ppm) | Biofilm growth ([2]; test concentration 12 ppm) | Biofilm growth ([2]; test concentration 25 ppm) | Biofilm growth ([2]; test concentration 50 ppm) | Biofilm growth ([2]; test concentration 63 ppm) | also measured
1 | 3,3′-((3,3′-(octylazanediyl)bis(propanoyl))bis(azanediyl))bis(N,N,N-trimethylpropan-1-aminium) chloride [Compound 4] | + | + | + | ++ | +/− | − | − | − | − | − | − | − | + | + | +/− | − | − | − | − | − | Biofilm growth ([2]; test concentration 125 ppm): −; Biofilm growth ([2]; test concentration 250 ppm): −; Biofilm growth ([2]; test concentration 500 ppm): −; Biofilm growth ([2]; test concentration 1000 ppm): −
2 | CCCCCCCCCCCCN(CCC(=O)NCCC[N+](C)(C)C)CCC(=O)NCCC[N+](C)(C)C.[Cl-].[Cl-] [Compound 1, 3,3′-((3,3′-(dodecylazanediyl)bis(propanoyl))bis(azanediyl))bis(N,N,N-trimethylpropan-1-aminium) chloride] | + | + | + | + | + | + | + | + | + | + | + | − | + | + | + | + | + | + | + | + | Biofilm growth ([2]; test concentration 125 ppm): +; Biofilm growth ([2]; test concentration 250 ppm): +/−; Biofilm growth ([2]; test concentration 500 ppm): −; Biofilm growth ([2]; test concentration 1000 ppm): −
3 | CCCCCCCCCCCCCCCCN(CCC(=O)NCCC[N+](C)(C)C)CCC(=O)NCCC[N+](C)(C)C.[Cl-].[Cl-] [Compound 2, 3,3′-((3,3′-(hexadecylazanediyl)bis(propanoyl))bis(azanediyl))bis(N,N,N-trimethylpropan-1-aminium) chloride] | + | + | + | + | + | + | +/− | − | − | − | − | − | + | + | + | + | + | +/− | − | − | Biofilm growth ([2]; test concentration 125 ppm): −; Biofilm growth ([2]; test concentration 250 ppm): −; Biofilm growth ([2]; test concentration 500 ppm): −; Biofilm growth ([2]; test concentration 1000 ppm): −
4 | CCCCCCCCC=CCCCCCCCCN(CCC(=O)NCCC[N+](C)(C)C)CCC(=O)NCCC[N+](C)(C)C.[Cl-].[Cl-] [Compound 3, 3,3′-((3,3′-(octadec-9-en-1-ylazanediyl)bis(propanoyl))bis(azanediyl)) bis(N,N,N-trimethylpropan-1-aminium) chloride] | + | + | + | + | + | + | +/− | +/− | − | − | − | − | + | + | + | + | +/− | +/− | +/− | − | Biofilm growth ([2]; test concentration 125 ppm): −; Biofilm growth ([2]; test concentration 250 ppm): −; Biofilm growth ([2]; test concentration 500 ppm): −; Biofilm growth ([2]; test concentration 1000 ppm): _
